Legend:
Assay type in all cases: in vivo
[1] = system: ducksalad (Heteranthera limosa); experiment: Test B flooded paddy test; conditions: for Plant response rating, Flood, Ducksalad: 250 g ai/ha, flooded paddy test, visual rating on 0 to 100 scale (0 no effect, 100 complete control) after 13 to 15 days; for Plant response rating, Ducksalad: Flood (flooded paddy test), 13 to 15 days; for Ducksalad plant response rating: Flood, 31 g ai/ha, scale 0 to 100 (0 no effect, 100 complete control)
Method in brief: (§1)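 Flooded-pot test: water raised to 3 cm above soil when treating, compound put in the water, level unchanged thereafter. Plants were at 2 leaves. Readout after 13 to 15 days, visual, relative to controls; 0 signifies no effect and 100 complete control.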

[2] = system: umbrella sedge (Cyperus difformis); experiment: Test B flooded paddy test; conditions: for Plant response rating, Flood, Sedge, Umbrella: 250 g ai/ha, flooded paddy test, visual rating on 0 to 100 scale (0 no effect, 100 complete control) after 13 to 15 days; for Plant response rating, Sedge, Umbrella: Flood (flooded paddy test), 13 to 15 days; for Sedge, Umbrella plant response rating: Flood, 31 g ai/ha, scale 0 to 100 (0 no effect, 100 complete control)
Method in brief: as §1

rice (Oryza sativa) = experiment: Test B flooded paddy test; conditions: for Plant response rating, Flood, Rice: 250 g ai/ha, flooded paddy test, visual rating on 0 to 100 scale (0 no effect, 100 complete control) after 13 to 15 days; for Plant response rating, Rice: Flood (flooded paddy test), 13 to 15 days; for Rice plant response rating: Flood, 31 g ai/ha, scale 0 to 100 (0 no effect, 100 complete control)
Method in brief: as §1

[3] = system: barnyardgrass (Echinochloa crus-galli); experiment: Test B flooded paddy test; conditions: for Plant response rating, Flood, Barnyardgrass: 250 g ai/ha, flooded paddy test, visual rating on 0 to 100 scale (0 no effect, 100 complete control) after 13 to 15 days; for Plant response rating, Barnyardgrass: Flood (flooded paddy test), 13 to 15 days; for Barnyardgrass plant response rating: Flood, 31 g ai/ha, scale 0 to 100 (0 no effect, 100 complete control)
Method in brief: as §1

[4] = system: giant foxtail (Setaria faberii); experiment: Test A pre-/postemergence plant response
Method in brief: (§2)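 Plants grown from seed in a loam soil and sand mix received test compounds both as a preemergence soil spray and, at the same time, as a postemergence spray at the one- to two-leaf stage. Injury was judged visually against untreated controls roughly ten days later, 0 meaning no effect and 100 complete control.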

[5] = system: morningglory (Ipomoea spp.); experiment: Test A pre-/postemergence plant response
Method in brief: as §2

corn (Zea mays) = experiment: Test A pre-/postemergence plant response; conditions: for Corn plant response rating: visual injury, 0 to 100 scale (0 no effect, 100 complete control), approx. ten days
Method in brief: as §2

[6] = system: pigweed (Amaranthus retroflexus); experiment: Test A pre-/postemergence plant response
Method in brief: as §2

[7] = system: barnyardgrass (Echinochloa crus-galli); experiment: Test A pre-/postemergence plant response; conditions: for Barnyardgrass plant response rating: visual injury, 0 to 100 scale (0 no effect, 100 complete control), approx. ten days
Method in brief: as §2

[8] = system: wheat (Triticum aestivum); experiment: Test A pre-/postemergence plant response
Method in brief: as §2

[9] = system: velvetleaf (Abutilon theophrasti); experiment: Test A pre-/postemergence plant response
Method in brief: as §2

[10] = system: large crabgrass (Digitaria sanguinalis); experiment: Test A pre-/postemergence plant response; conditions: for Crabgrass, Large plant response rating: visual injury, 0 to 100 scale (0 no effect, 100 complete control), approx. ten days
Method in brief: as §2

[11] = 62 g ai/ha, scale of 0 to 100 where 0 is no effect and 100 is complete control
[12] = Postemergence, 125 g ai/ha, visual injury, 0 to 100 scale (0 no effect, 100 complete control), approx. ten days
[13] = Postemergence, 500 g ai/ha, visual injury, 0 to 100 scale (0 no effect, 100 complete control), approx. ten days
[14] = Preemergence, 125 g ai/ha, 0 to 100 scale where 0 is no effect and 100 is complete control, approximately ten days
[15] = Preemergence, 500 g ai/ha, 0 to 100 scale, 0 = no effect, 100 = complete control
[16] = Postemergence, 125 g ai/ha, 0 to 100 scale where 0 is no effect and 100 is complete control
[17] = 125 g ai/ha, scale 0 to 100, 0 is no effect, 100 is complete control

O=C(C1=C(O)C2CCC(C2)C1=O)c1cnc(-c2cccc(Br)c2)n(C2CCCCC2)c1=O (stereo not drawn) [Compound 252]
Plant response rating, Flood, Ducksalad [1]: 0
Plant response rating, Ducksalad [1, 11]: 0
Plant response rating, Flood, Sedge, Umbrella [2]: 0
Plant response rating, Sedge, Umbrella [2, 11]: 0
Plant response rating, Flood, Rice (rice (Oryza sativa)): 0
Plant response rating, Rice (rice (Oryza sativa); [11]): 0
Plant response rating, Flood, Barnyardgrass [3]: 0
Plant response rating, Barnyardgrass [3, 11]: 0
Plant response rating, Foxtail, Giant [4, 12]: 40
Foxtail, Giant plant response rating [4, 13]: 60
Plant response rating, Foxtail, Giant [4, 14]: 0
Plant response rating, Foxtail, Giant [4, 15]: 10
Plant response rating, Morningglory [5, 12]: 80
Morningglory plant response rating [5, 13]: 100
Plant response rating, Morningglory [5, 14]: 0
Plant response rating, Morningglory [5, 15]: 10
Plant response rating, Corn (corn (Zea mays); [16]): 0
Corn plant response rating (corn (Zea mays); Postemergence, 500 g ai/ha): 10
Plant response rating, Corn (corn (Zea mays); [14]): 0
Plant response rating, Corn (corn (Zea mays); [15]): 0
Plant response rating, Pigweed [6, 12]: 70
Pigweed plant response rating [6, 13]: 90
Plant response rating, Pigweed [6, 14]: 0
Plant response rating, Pigweed [6, 15]: 40
Plant response rating, Barnyardgrass [7, 16]: 80
Barnyardgrass plant response rating ([7]; Postemergence, 500 g ai/ha): 90
Plant response rating, Barnyardgrass [7, 14]: 0
Plant response rating, Barnyardgrass [7, 15]: 0
Plant response rating, Wheat [8, 12]: 0
Wheat plant response rating [8, 13]: 10
Plant response rating, Wheat [8, 14]: 0
Plant response rating, Wheat [8, 15]: 0
Plant response rating, Velvetleaf [9, 12]: 70
Velvetleaf plant response rating [9, 13]: 90
Plant response rating, Velvetleaf [9, 14]: 20
Plant response rating, Velvetleaf [9, 15]: 50
Plant response rating, Crabgrass, Large [10, 16]: 30
Crabgrass, Large plant response rating ([10]; Postemergence, 500 g ai/ha): 60
Plant response rating, Crabgrass, Large [10, 14]: 10
Plant response rating, Crabgrass, Large [10, 15]: 20

O=C(C1=C(O)C2CCC(C2)C1=O)c1cnc(-c2ccccc2)n(C2CCCCCC2)c1=O (stereo not drawn) [Compound 253]
Plant response rating, Flood, Ducksalad [1]: 90
Plant response rating, Ducksalad [1, 11]: 75
Plant response rating, Ducksalad [1, 17]: 85
Ducksalad plant response rating [1]: 60
Plant response rating, Flood, Sedge, Umbrella [2]: 85
Plant response rating, Sedge, Umbrella [2, 11]: 65
Plant response rating, Sedge, Umbrella [2, 17]: 75
Sedge, Umbrella plant response rating [2]: 60
Plant response rating, Flood, Rice (rice (Oryza sativa)): 20
Plant response rating, Rice (rice (Oryza sativa); [11]): 0
Plant response rating, Rice (rice (Oryza sativa); [17]): 0
Rice plant response rating (rice (Oryza sativa)): 0
Plant response rating, Flood, Barnyardgrass [3]: 20
Plant response rating, Barnyardgrass [3, 11]: 0
Plant response rating, Barnyardgrass [3, 17]: 0
Barnyardgrass plant response rating [3]: 0
Plant response rating, Foxtail, Giant [4, 12]: 60
Foxtail, Giant plant response rating [4, 13]: 100
Plant response rating, Foxtail, Giant [4, 14]: 20
Plant response rating, Foxtail, Giant [4, 15]: 70
Plant response rating, Morningglory [5, 12]: 100
Morningglory plant response rating [5, 13]: 100
Plant response rating, Morningglory [5, 14]: 40
Plant response rating, Morningglory [5, 15]: 70
Plant response rating, Corn (corn (Zea mays); [16]): 10
Corn plant response rating (corn (Zea mays); Postemergence, 500 g ai/ha): 40
Plant response rating, Corn (corn (Zea mays); [14]): 0
Plant response rating, Pigweed [6, 12]: 90
Pigweed plant response rating [6, 13]: 100
Plant response rating, Pigweed [6, 14]: 20
Plant response rating, Pigweed [6, 15]: 80
Plant response rating, Barnyardgrass [7, 16]: 100
Barnyardgrass plant response rating ([7]; Postemergence, 500 g ai/ha): 100
Plant response rating, Barnyardgrass [7, 14]: 10
Plant response rating, Barnyardgrass [7, 15]: 20
Plant response rating, Wheat [8, 12]: 0
Wheat plant response rating [8, 13]: 20
Plant response rating, Wheat [8, 14]: 0
Plant response rating, Wheat [8, 15]: 20
Plant response rating, Velvetleaf [9, 12]: 100
Velvetleaf plant response rating [9, 13]: 100
Plant response rating, Velvetleaf [9, 14]: 50
Plant response rating, Velvetleaf [9, 15]: 90
Plant response rating, Crabgrass, Large [10, 16]: 80
Crabgrass, Large plant response rating ([10]; Postemergence, 500 g ai/ha): 100
Plant response rating, Crabgrass, Large [10, 14]: 30
Plant response rating, Crabgrass, Large [10, 15]: 80

COc1ccc(-n2c(-c3ccccc3)ncc(C(=O)C3=C(O)CCCC3=O)c2=O)c(OC)c1 [Compound 256]
Plant response rating, Flood, Ducksalad [1]: 85
Plant response rating, Ducksalad [1, 11]: 40
Plant response rating, Ducksalad [1, 17]: 80
Ducksalad plant response rating [1]: 30
Plant response rating, Flood, Sedge, Umbrella [2]: 75
Plant response rating, Sedge, Umbrella [2, 11]: 40
Plant response rating, Sedge, Umbrella [2, 17]: 75
Sedge, Umbrella plant response rating [2]: 30
Plant response rating, Flood, Rice (rice (Oryza sativa)): 0
Plant response rating, Rice (rice (Oryza sativa); [11]): 0
Plant response rating, Rice (rice (Oryza sativa); [17]): 0
Rice plant response rating (rice (Oryza sativa)): 0
Plant response rating, Flood, Barnyardgrass [3]: 0
Plant response rating, Barnyardgrass [3, 11]: 0
Plant response rating, Barnyardgrass [3, 17]: 0
Barnyardgrass plant response rating [3]: 0
Plant response rating, Foxtail, Giant [4, 12]: 20
Foxtail, Giant plant response rating [4, 13]: 70
Plant response rating, Foxtail, Giant [4, 14]: 0
Plant response rating, Foxtail, Giant [4, 15]: 30
Plant response rating, Morningglory [5, 12]: 30
Morningglory plant response rating [5, 13]: 80
Plant response rating, Morningglory [5, 14]: 0
Plant response rating, Morningglory [5, 15]: 50
Plant response rating, Corn (corn (Zea mays); [16]): 0
Corn plant response rating (corn (Zea mays); Postemergence, 500 g ai/ha): 10
Plant response rating, Corn (corn (Zea mays); [14]): 0
Plant response rating, Corn (corn (Zea mays); [15]): 0
Plant response rating, Pigweed [6, 12]: 90
Pigweed plant response rating [6, 13]: 100
Plant response rating, Pigweed [6, 14]: 0
Plant response rating, Pigweed [6, 15]: 90
Plant response rating, Barnyardgrass [7, 16]: 40
Barnyardgrass plant response rating ([7]; Postemergence, 500 g ai/ha): 90
Plant response rating, Barnyardgrass [7, 14]: 0
Plant response rating, Barnyardgrass [7, 15]: 70
Plant response rating, Wheat [8, 12]: 0
Wheat plant response rating [8, 13]: 0
Plant response rating, Wheat [8, 14]: 0
Plant response rating, Wheat [8, 15]: 0
Plant response rating, Velvetleaf [9, 12]: 100
Velvetleaf plant response rating [9, 13]: 100
Plant response rating, Velvetleaf [9, 14]: 20
Plant response rating, Velvetleaf [9, 15]: 80
Plant response rating, Crabgrass, Large [10, 16]: 30
Crabgrass, Large plant response rating ([10]; Postemergence, 500 g ai/ha): 80
Plant response rating, Crabgrass, Large [10, 14]: 10
Plant response rating, Crabgrass, Large [10, 15]: 80
